According to patent US20110218218A1, “Formulations Of Indanylamines And The Use Thereof As Local Anesthetics And As Medication For Chronic Pain” (BRIDGE PHARMA, INC., priority 2005, published 2011):
In brackets after ≈: the same amount, converted by molar mass.

Assays:
[1] = Screening of excipients for their capability to dissolve LAC-34 free base at room temperature; assay type: physicochemical; settings: 22 °C, thermodynamic from solid
Method: (§1) HPLC analytical methodology was developed, using LAC-34 free base at room temperature (21-23° C.). A liquid's ability to dissolve LAC-34 was screened by adding a known mass of LAC-34 to a known volume/mass of liquid. Saturation solubility was measured by adding an excess of drug substance and allowing the suspension to equilibrate while stirring for 2-3 days. Four solutions of different concentrations of LAC-34 (8.1 mcg/mL to 0.98 mg/mL) plus a blank were typically tested in triplicate. Excellent linearity of the recovery was obtained over […] in LAC-34 concentrations and the relative standard deviations of peak areas for all LAC-34 solutions were less than 0.5%.
Various excipients were tested for their capability to dissolve LAC-34, free base.

[2] = Physical state of LAC-34 in solvents when tested at 4° C.; assay type: physicochemical
Method: When tested at 4° C., 20% LAC-34 in benzyl alcohol was a solution, 5% LAC-34 in propylene glycol was a gel, 5% LAC-34 in isopropyl myristate was a suspension, 5% LAC-34 in isopropyl palmitate was a solid, 5% LAC-34 in isopropyl alcohol was a suspension and cetyl alcohol was a solid (melting point=49.3° C.)

[3] = Saturation solubility of LAC-34 free base in selected solvents (HPLC); assay type: physicochemical; settings: 22 °C, thermodynamic from solid
Method: as §1
The saturation solubility of LAC-34 was measured in capric/caprylic triglycerides (CCT), dimethylsulfoxide (DMSO), ethanol, isopropanol, isopropyl myristate (IPM), pentane, propylene glycol (PG), and water. CCT and IPM were selected for further work since they can function as emollients and oily vehicles in creams. DMSO is a solvent and a penetration enhancer. Ethanol and isopropanol are volatile solvents and rapid evaporation of a solvent like ethanol and isopropyl alcohol may be important for minimizing therapeutic onset time. Propylene glycol has multiple functions in dermal formulations, the most important of which are solubilization and penetration enhancement.
The analytical HPLC method described in Example 1 was used.
All of the solvents, with the exception of water, were able to dissolve large quantities of LAC-34. LAC-34, as the free base, was very soluble also in DMSO. Both IPM and CCT, which are semi-polar emollient oils, had also high solubilization capacity for LAC-34. Propylene glycol (PG), which has multiple actions for dermal drug delivery (see Table 1), was also able to solubilize significant quantities of LAC-34. […] After observing this phenomenon with ethanol, 0.125 g of isopropanol was added to 0.25 g of LAC-34. […] This was approximately 526 mg/mL.

[4] = Solubility of LAC-34 in binary mixtures of solvent and water (anti-solvent); assay type: physicochemical
Method: Due to the very high solubility of LAC-34 free base in numerous volatile solvents, it was determined to be necessary to find and add an anti-solvent in order to reach saturation of the solutions of LAC-34. The efficacy of water is an anti-solvent for LAC-34 free base was investigated in the present studies.

[5] = Ternary solubility studies: PG/ethanol solutions titrated with water until cloudy; assay type: physicochemical
Method: Therefore, several solutions were made where PG would be saturated or almost saturated with LAC-34 (i.e., […]). A quantity of ethanol was added to act at the volatile solvent. Each solution was titrated with water until it became cloudy. As with other titrations with water, the LAC-34 appeared to come out of solution as a liquid (oil) rather than a solid.

[6] = test system: batrachotoxin-sensitive Na+ channel (site 2); experiment: [3H]batrachotoxin binding to Na+ channels (site 2); design: species or system rat
[7] = target: T1, human NaV1.3 channels (Homo sapiens, UniProt Q9NY46); experiment: NaV1.3 electrophysiology (patch clamp) in HEK-293 cells; assay type: cell-based
T1 construct: expressed in transfected cells; host or cells: HEK-293
T1 sequence (Q9NY46 whole entry): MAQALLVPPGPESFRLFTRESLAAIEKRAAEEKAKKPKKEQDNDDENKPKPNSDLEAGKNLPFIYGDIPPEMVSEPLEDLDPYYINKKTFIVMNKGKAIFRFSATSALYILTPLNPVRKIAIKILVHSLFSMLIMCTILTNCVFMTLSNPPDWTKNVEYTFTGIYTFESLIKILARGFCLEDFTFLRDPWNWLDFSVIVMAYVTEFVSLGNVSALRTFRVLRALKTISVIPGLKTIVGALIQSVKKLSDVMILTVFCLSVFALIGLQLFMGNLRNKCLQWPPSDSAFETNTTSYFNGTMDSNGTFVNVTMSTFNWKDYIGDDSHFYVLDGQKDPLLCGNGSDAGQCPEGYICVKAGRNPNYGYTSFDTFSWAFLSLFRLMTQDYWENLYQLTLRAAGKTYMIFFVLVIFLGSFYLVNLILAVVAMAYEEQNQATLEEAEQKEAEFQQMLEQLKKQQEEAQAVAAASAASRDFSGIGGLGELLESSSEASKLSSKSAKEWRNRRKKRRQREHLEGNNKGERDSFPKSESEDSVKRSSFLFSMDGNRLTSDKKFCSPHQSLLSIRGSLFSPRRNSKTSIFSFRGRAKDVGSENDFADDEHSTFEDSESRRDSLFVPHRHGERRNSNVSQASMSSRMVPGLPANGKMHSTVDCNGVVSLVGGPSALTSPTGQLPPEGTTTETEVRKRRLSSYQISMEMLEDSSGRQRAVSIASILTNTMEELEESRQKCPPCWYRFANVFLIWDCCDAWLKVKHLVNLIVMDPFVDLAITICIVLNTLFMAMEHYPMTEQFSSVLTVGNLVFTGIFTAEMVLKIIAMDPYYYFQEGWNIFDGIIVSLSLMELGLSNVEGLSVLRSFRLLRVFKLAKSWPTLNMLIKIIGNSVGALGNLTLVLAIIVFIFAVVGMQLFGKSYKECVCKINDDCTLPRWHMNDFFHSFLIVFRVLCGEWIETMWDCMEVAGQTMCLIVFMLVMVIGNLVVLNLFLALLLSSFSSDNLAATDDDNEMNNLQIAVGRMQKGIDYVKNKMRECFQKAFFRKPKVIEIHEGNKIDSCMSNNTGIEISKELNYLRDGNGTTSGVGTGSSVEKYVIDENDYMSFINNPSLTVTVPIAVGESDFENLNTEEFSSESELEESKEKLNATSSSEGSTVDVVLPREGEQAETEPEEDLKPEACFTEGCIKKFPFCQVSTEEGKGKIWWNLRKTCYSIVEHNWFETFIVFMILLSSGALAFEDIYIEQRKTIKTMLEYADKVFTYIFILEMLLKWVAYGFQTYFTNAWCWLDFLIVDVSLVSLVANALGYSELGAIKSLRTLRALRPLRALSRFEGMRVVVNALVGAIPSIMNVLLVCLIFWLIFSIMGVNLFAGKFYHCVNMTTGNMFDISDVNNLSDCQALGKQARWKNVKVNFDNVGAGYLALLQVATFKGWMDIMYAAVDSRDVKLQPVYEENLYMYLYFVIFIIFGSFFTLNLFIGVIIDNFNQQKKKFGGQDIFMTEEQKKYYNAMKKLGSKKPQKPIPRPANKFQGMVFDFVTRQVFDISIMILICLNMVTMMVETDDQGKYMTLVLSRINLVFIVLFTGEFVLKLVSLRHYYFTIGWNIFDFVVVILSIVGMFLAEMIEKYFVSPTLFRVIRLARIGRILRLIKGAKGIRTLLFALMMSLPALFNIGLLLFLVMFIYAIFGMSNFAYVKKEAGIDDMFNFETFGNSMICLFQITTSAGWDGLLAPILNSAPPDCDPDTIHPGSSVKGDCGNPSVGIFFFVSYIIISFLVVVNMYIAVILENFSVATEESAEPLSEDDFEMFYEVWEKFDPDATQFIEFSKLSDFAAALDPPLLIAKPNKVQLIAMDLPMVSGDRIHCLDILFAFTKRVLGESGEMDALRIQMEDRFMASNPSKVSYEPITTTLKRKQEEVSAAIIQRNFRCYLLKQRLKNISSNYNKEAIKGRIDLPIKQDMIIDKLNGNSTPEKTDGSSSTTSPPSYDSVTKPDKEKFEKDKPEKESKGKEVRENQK

[8] = target: T2, human NaV1.5 channels (Homo sapiens, UniProt Q14524); experiment: NaV1.5 electrophysiology (patch clamp) in HEK-293 cells; assay type: cell-based
T2 construct: expressed in transfected cells; host or cells: HEK-293
T2 sequence (Q14524 whole entry): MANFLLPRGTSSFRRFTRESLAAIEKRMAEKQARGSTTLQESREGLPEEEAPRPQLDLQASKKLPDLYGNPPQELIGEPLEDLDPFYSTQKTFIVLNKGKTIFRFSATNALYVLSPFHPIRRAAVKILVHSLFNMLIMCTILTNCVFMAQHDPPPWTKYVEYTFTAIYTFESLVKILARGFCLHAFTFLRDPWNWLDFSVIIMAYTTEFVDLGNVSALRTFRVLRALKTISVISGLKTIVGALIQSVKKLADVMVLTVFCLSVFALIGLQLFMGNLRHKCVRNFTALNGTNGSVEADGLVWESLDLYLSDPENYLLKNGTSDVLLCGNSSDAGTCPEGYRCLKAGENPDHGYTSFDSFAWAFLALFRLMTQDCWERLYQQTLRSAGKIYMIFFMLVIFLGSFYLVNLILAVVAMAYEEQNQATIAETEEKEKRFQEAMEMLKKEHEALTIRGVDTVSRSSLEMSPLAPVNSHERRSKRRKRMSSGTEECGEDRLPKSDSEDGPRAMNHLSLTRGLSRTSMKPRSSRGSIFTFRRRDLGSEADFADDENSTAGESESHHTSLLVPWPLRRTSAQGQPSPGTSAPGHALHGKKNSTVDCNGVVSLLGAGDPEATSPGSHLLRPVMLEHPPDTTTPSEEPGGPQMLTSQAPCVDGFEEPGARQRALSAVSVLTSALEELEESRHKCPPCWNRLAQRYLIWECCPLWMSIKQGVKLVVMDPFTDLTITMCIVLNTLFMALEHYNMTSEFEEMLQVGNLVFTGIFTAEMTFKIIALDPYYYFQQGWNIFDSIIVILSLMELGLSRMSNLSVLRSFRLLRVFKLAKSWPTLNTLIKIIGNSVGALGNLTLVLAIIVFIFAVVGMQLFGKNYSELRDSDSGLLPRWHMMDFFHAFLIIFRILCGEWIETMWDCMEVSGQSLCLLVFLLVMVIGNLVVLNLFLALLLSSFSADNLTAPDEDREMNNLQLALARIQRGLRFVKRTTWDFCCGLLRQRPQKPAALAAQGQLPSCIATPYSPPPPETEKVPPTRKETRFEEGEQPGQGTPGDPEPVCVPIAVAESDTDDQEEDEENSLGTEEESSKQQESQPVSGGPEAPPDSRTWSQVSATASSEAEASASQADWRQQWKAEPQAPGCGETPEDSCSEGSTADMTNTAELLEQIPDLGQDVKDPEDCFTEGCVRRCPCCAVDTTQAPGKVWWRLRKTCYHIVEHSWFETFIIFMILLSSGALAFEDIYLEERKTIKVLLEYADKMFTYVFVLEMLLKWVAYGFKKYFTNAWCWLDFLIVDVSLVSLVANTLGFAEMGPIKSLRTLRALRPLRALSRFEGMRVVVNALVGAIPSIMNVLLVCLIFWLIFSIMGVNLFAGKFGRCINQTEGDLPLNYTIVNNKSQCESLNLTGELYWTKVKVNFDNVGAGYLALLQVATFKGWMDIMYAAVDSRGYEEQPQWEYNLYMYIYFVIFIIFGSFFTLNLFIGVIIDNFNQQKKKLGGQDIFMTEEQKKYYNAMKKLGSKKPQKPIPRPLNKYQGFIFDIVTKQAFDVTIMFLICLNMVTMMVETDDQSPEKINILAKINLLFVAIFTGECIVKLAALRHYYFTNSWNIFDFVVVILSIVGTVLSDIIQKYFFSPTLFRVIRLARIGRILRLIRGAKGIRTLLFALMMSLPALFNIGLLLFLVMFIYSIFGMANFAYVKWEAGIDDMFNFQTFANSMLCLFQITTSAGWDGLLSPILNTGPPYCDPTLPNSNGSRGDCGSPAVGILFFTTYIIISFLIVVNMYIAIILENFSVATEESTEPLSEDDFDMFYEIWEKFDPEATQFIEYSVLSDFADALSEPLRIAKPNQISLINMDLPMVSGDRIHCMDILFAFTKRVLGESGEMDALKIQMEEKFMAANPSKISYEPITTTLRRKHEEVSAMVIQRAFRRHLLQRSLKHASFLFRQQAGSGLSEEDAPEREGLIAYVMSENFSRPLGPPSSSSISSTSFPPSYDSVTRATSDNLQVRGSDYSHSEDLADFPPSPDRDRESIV

[9] = test system: guinea pigs; experiment: Dermal anesthesia after dermal application, pinprick method; assay type: in vivo, guinea pig; settings: for Average Anesthetic Score: 2.0 ml of 5.0% solution in DMSO/water, 30 min occluded, maximal score 6
Method: The purpose of this study was to determine the efficacy of the free base and pharmaceutically acceptable salt forms of LAC-34 as dermal anesthetics, following dermal application of the compounds to guinea pigs. The Duration of Anesthesia is directly related to the Dermal Residence Times of the test articles.
Four groups of six male guinea pigs received a dose of 2.0 ml of a 5.0% solution of four test articles (LAC-34 base, LAC-34 mono-HCl salt, LAC-34 di-HCl salt and LAC-34 mesylate salt) that had been applied onto a two-inch square, 4-layer thick gauze pad on depilated dorsal skin of each guinea pig. Similarly, one group of guinea pigs received the vehicle, which consisted of DMSO/water and served as the control group. The gauze was occluded and the guinea pigs were wrapped for 30 min. Animals were assessed for initial pain reaction (anesthetic depth) at 15-minute intervals up to 3 hours and at 24 hours. An algesimeter, set at 10 g, was employed to assess the onset and depth of anesthesia using the pinprick method causing a twitch response or non-response. The “Average Anesthetic Score” was defined as number of probings not producing a dermal twitch response. Thus, a situation where there were no dermal twitch responses to six probings represent a maximal anesthetic effect and is denoted as an Average Anesthetic Score of 6. Duration of Anesthesia was in this study defined as the time from patch removal until the test scores have regressed to an average anesthetic score below 2.0. The Duration of Anesthesia in this type of experiments is directly related the duration of Dermal Residency for the test articles.

[10] = Water solubility (spectrophotometric, HPLC); assay type: physicochemical; settings: LAC-34 as free base
Method: (§2) Water solubility and dissociation constants were determined for the free base of LAC-34 using standard spectrophotometric, HPLC and potentiometric methods.

[11] = Dissociation constant (pKa), potentiometric; assay type: physicochemical; settings: LAC-34 as free base
Method: as §2

For `c1ccc(N(CCC2CCCCN2)C2Cc3ccccc3C2)cc1` (racemic) [LAC-34, 2-[2-(N-Phenyl-N-2-indanyl)aminoethyl]piperidine], the solubility ([1]; oil or lipid, in isopropyl myristate) was over 78 mg/mL, the solubility ([1]; oil or lipid, in isopropyl palmitate) was 50 to 100 mg/mL (≈ 156 to 312 mM) and the solubility ([1]; oil or lipid, in mineral oil) was under 50 mg/mL. The solubility ([1]; organic solvent or mixture, in benzyl alcohol) was over 100 mg/mL, the solubility ([1]; organic solvent or mixture, in dibutyl adipate) was over 79 mg/mL and the solubility ([1]; organic solvent or mixture, in ethanol) was over 86 mg/mL. It also gave a solubility ([1]; organic solvent or mixture, in hexylene glycol) of over 75 mg/mL, a solubility ([1]; organic solvent or mixture, in isopropyl alcohol) of over 79 mg/mL and a solubility ([1]; organic solvent or mixture, in propylene carbonate) of over 78 mg/mL. The solubility ([1]; organic solvent or mixture, in propylene glycol) was over 76 mg/mL, the “Physical state at 4° C.” value ([2]; 5% LAC-34 in isopropyl alcohol) was “suspension” and the “Physical state at 4° C.” value ([2]; 5% LAC-34 in isopropyl myristate) was “suspension”. For the same compound, the “Physical state at 4° C.” value ([2]; 5% LAC-34 in isopropyl palmitate) was “solid”, the “Physical state at 4° C.” value ([2]; 5% LAC-34 in propylene glycol) was “gel” and the “Physical state at 4° C.” value ([2]; 20% LAC-34 in benzyl alcohol) was “solution”. It also gave a solubility ([3]; capric/caprylic triglycerides (CCT), oil or lipid, in capric/caprylic triglycerides (CCT)) of 195 mg/mL (≈ 608 mM), a solubility ([3]; dimethylsulfoxide (DMSO), organic solvent or mixture, in dimethylsulfoxide (DMSO)) of 215 mg/mL (≈ 671 mM) and a solubility ([3]; ethanol, organic solvent or mixture, in ethanol (never saturated)) of over 2000 mg/mL. It also gave a solubility ([3]; isopropyl myristate (IPM), oil or lipid, in isopropyl myristate (IPM)) of 184 mg/mL (≈ 574 mM), a solubility ([3]; pentane, organic solvent or mixture, in pentane, value uncertain, pentane evaporates rapidly) of 150 mg/mL (≈ 468 mM) and a solubility ([3]; propylene glycol (PG), organic solvent or mixture, in propylene glycol (PG)) of 149 mg/mL (≈ 465 mM). For the same compound, the solubility ([3]; water, in water) was 0.005 mg/mL (≈ 0.0156 mM), the solubility ([4]; DMSO with 5% water, organic solvent or mixture, DMSO, 5% water, previous tests) was at least 100 mg/mL and the solubility ([4]; DMSO with 50% water, aqueous with cosolvent or surfactant or cyclodextrin, DMSO, 50% water, read-out: Solubility of LAC-34 in mixture of solvent and water) was 1.7 mg/mL (≈ 5.3 mM). For the same compound, the solubility ([4]; DMSO with 90% water, aqueous with cosolvent or surfactant or cyclodextrin, DMSO, 90% water, read-out: Solubility of LAC-34 in mixture of solvent and water) was 0.45 mg/mL (≈ 1.4 mM), the solubility ([4]; DMSO, 0% water, organic solvent or mixture) was 215 mg/mL (≈ 671 mM) and the solubility ([4]; ethanol with 15% water, organic solvent or mixture, kinetic from dmso stock, ethanol, 15% water, titrated from an ethanol/LAC-34 solution with water) was 63 mg/mL (≈ 197 mM). The solubility ([4]; ethanol with 20% water, organic solvent or mixture, kinetic from dmso stock, ethanol, 20% water, titrated from an ethanol/LAC-34 solution with water) was 33 mg/mL (≈ 103 mM), the solubility ([4]; ethanol with 30% water, organic solvent or mixture, kinetic from dmso stock, ethanol, 30% water, titrated from an ethanol/LAC-34 solution with water) was 7 mg/mL (≈ 21.8 mM) and the solubility ([4]; ethanol, 0% water, organic solvent or mixture) was over 2000 mg/mL. For the same compound, the solubility ([4]; propylene glycol with 1% water, organic solvent or mixture, PG, 1% water) was 139 mg/mL (≈ 434 mM), the solubility ([4]; propylene glycol with 2.5% water, organic solvent or mixture, PG, 2.5% water) was 104 mg/mL (≈ 325 mM) and the solubility ([4]; propylene glycol with 5% water, organic solvent or mixture, PG, 5% water) was 63 mg/mL (≈ 197 mM). For the same compound, the solubility ([4]; propylene glycol with 10% water, organic solvent or mixture, PG, 10% water) was 29 mg/mL (≈ 90.5 mM), the solubility ([4]; propylene glycol with 20% water, organic solvent or mixture, PG, 20% water) was 8.7 mg/mL (≈ 27.1 mM) and the solubility ([4]; propylene glycol with 50% water, aqueous with cosolvent or surfactant or cyclodextrin, PG, 50% water, read-out: Solubility of LAC-34 in mixture of solvent and water) was 0.37 mg/mL (≈ 1.15 mM). For the same compound, the solubility ([4]; propylene glycol with 75% water, aqueous with cosolvent or surfactant or cyclodextrin, PG, 75% water, read-out: Solubility of LAC-34 in mixture of solvent and water) was 0.075 mg/mL (≈ 0.234 mM), the solubility ([4]; propylene glycol, organic solvent or mixture, PG, 0% water) was 149 mg/mL (≈ 465 mM) and the “Saturation Concentration of LAC-34” value ([5]; 0.150 g LAC-34, 1.0 g PG, 0.5 g ethanol, 0.317 g water titrated) was 7.6 % w/w. For the same compound, the “Saturation Concentration of LAC-34” value ([5]; 0.150 g LAC-34, 1.0 g PG, 1.0 g ethanol, 0.601 g water titrated) was 5.4 % w/w, the “Saturation Concentration of LAC-34” value ([5]; 0.200 g LAC-34, 1.0 g PG, 3.0 g ethanol, 1.880 g water titrated) was 3.3 % w/w and the “Potency relative to lidocaine, batrachotoxin-sensitive Na-channels” value ([6]; calculated from IC50 values) was “approximately 210 times”. For the same compound, the IC50 ([6]; rat cerebral cortex, 10 nM ligand, 60 min/22° C., read-out: IC50, inhibition of [3H]batrachotoxin specific binding) was 247 nM, the IC50 ([7]; HEK-293 cells, patch clamp) was 4000 nM and the “Potency relative to lidocaine, NaV1.3 channels” value ([7]; calculated) was “more than 200 times”. The IC50 [8] was 600 nM, the “Potency relative to lidocaine, NaV1.5 channels” value ([8]; calculated) was “about 500 times” and the “Average Anesthetic Score” value ([9]; 15 min after patch removal) was 4.8. For the same compound, the “Average Anesthetic Score” value ([9]; 30 min after patch removal) was 4.8, the “Average Anesthetic Score” value ([9]; 60 min after patch removal) was 4.4 and the “Average Anesthetic Score” value ([9]; 90 min after patch removal) was 3.3. The “Average Anesthetic Score” value ([9]; 180 min after patch removal) was 2.2, the “Maximal Depth of Anesthesia” value ([9]; highest Average Anesthetic Score after patch removal, 5.0% solution) was 4.8 and the “Duration of Anesthesia” value ([9]; time from patch removal until average anesthetic score below 2.0, 5.0% solution) was 180 min. The solubility [10] was 0.005 mg/mL (≈ 0.0156 mM) and the pKa [11] was 8.09 ± 0.23.
`CCN(CC)CC(=O)Nc1c(C)cccc1C` [Lidocaine, reference compound] gave an inhibition at 2000 µM ([7]; HEK293, read-out: inhibition of NaV1.3 channels) of 70%.
In the case of `CCCCNc1ccc(C(=O)OCCN(C)C)cc1` [Tetracaine, reference compound], the solubility [10] is reported as 0.356 mg/mL (≈ 1.35 mM) and the pKa [11] is reported as 8.51 ± 0.12.
